Values joined by “and” are separate entries in the source; they are usually repeats but may differ in a detail not shown here. Equal values may be shown once. Values belong to the molecule of their own block, whether it stands above or below them.
Legend:
[1] = Excretion of [^18F]-radioactivity via urine and faeces in normal mice (gamma counter); type: in vivo; conditions: i.v., decay corrected
Method: (§1) The biodistribution of [^18F]-2d and [^18F]-5d was investigated in healthy male NMRI mice (28.3-35.6 g body weight, n=3 animals per time point) at 2, 5, 30, 60 and 180/240 min after intravenous injection of 0.264 MBq [^18F]-2d and 0.268 MBq [^18F]-5d per animal, respectively. Until the indicated time points urine and faeces were quantitatively collected. At the respective time points the mice were sacrificed and the tissues were removed. [^18F]-radioactivity was analyzed in a gamma counter (Tab. 1.1, 2.1 and 1.2, 2.2).

[2] = molecular target: T1, peripheral benzodiazepine receptor (PBR) (Rattus norvegicus, UniProt P16257); assay: Ex vivo autoradiography of brain sections, rat kainic acid induced epilepsy model; type: in vivo; conditions: for Hipp/Cereb ratio (signal-to-background ratio, hippocampus/cerebellum): rat kainic acid model, 30 min ex vivo autoradiography
T1 construct: from tissue; host or cells: rat brain (hippocampus, cerebellum) after i.v. tracer injection
Method: Using a rat kainic acid induced epilepsy model and respective sham controls the accumulation of [^18F]-2d and [^18F]-5d was visualized ex vivo. In brief, epilepsy was induced in rats by injecting kainic acid i.p. At day eight after the start of the kainic acid treatment [^18F]-2d and [^18F]-5d were injected into the tail vein of the rats and their sham treated controls (PBS instead of kainic acid) at a dose of 25.8-35.8 MBq (approximately 1.0 μg) per rat. Thirty minutes after intravenous injection the rats were sacrificed, the brains were taken out, snap frozen and sliced transversally in a cryostat. The slices were exposed to PhosphoImager plates over night. The resulting autoradiographic signals were analyzed qualitatively and quantitatively (FIG. 2.1 A and C, 2.2 A and C). […] To determine the specificity of the [^18F]-2d and [^18F]-5d binding, kainic acid treated rats were co-injected with [^19F]-2e and [^19F]-5e, respectively.
The autoradiographic signals were quantified. The signal intensity in a hippocampal region of interest (ROI) was measured and compared to a ROI in the cerebellum, that was used as reference region.

[3] = Biodistribution of [^18F]-radioactivity in healthy male NMRI mice after intravenous injection (gamma counter); type: in vivo; conditions: for [^18F]-radioactivity in adrenals / [^18F]-radioactivity in blood / [^18F]-radioactivity in bone / [^18F]-radioactivity in brain (brain uptake) / [^18F]-radioactivity in fat / [^18F]-radioactivity in heart / [^18F]-radioactivity in intestine / [^18F]-radioactivity in kidney / [^18F]-radioactivity in liver / [^18F]-radioactivity in lung / [^18F]-radioactivity in muscle / [^18F]-radioactivity in pancreas / [^18F]-radioactivity in skin / [^18F]-radioactivity in spleen / [^18F]-radioactivity in stomach / [^18F]-radioactivity in testes / [^18F]-radioactivity in thyroid: normal mice, i.v., decay corrected
Method: as §1

[4] = cited from earlier work
[5] = molecular target: CBR (central diazepine receptor); assay: CBR binding, [^3H]-Flumazenil
PBR = PBR (Homo sapiens, UniProt P30536); assay: PBR binding, [^3H]-PK11195
Sequence of PBR (P30536 whole entry, species assumed): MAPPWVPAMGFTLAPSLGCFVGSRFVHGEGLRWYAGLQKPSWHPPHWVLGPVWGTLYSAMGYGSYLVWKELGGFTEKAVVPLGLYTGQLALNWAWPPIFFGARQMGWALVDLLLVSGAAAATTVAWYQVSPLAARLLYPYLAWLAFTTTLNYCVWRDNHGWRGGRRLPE

Excretion of [^18F]-radioactivity via faeces ([1]; 2 min): 0.00 ± 0.00 % injected dose
Excretion of [^18F]-radioactivity via urine ([1]; 2 min): 0.02 ± 0.02 % injected dose
Excretion of [^18F]-radioactivity via faeces ([1]; 5 min): 0.00 ± 0.00 % injected dose
Excretion of [^18F]-radioactivity via urine ([1]; 5 min): 0.04 ± 0.00 % injected dose
Excretion of [^18F]-radioactivity via faeces ([1]; 30 min): 0.03 ± 0.02 % injected dose
Excretion of [^18F]-radioactivity via urine ([1]; 30 min): 2.33 ± 1.20 % injected dose
Excretion of [^18F]-radioactivity via faeces ([1]; 60 min): 0.04 ± 0.02 % injected dose
Excretion of [^18F]-radioactivity via urine ([1]; 60 min): 4.21 ± 0.97 % injected dose
Excretion of [^18F]-radioactivity via faeces ([1]; 240 min): 0.74±1.01 % injected dose
Excretion of [^18F]-radioactivity via urine ([1]; 240 min): 15.24±1.25 % injected dose
Hipp/Cereb ratio (signal-to-background ratio, hippocampus/cerebellum) [2]: 3.0 ± 0.9
Hipp/Cereb ratio (signal-to-background ratio, hippocampus/cerebellum) ([2]; listed as 5d): 3.0±0.9
Initial elimination of the radioactivity from the brain ([3]; mice, 30 min p.i.): ca. 73%
Elimination from mouse brain, 2 min/30 min ratio of brain uptake (% ID/g) ([3]; mice, brain, 2 min to 30 min): 3.7
[^18F]-radioactivity in adrenals ([3]; 2 min): 9.90 ± 1.17 % injected dose/g
[^18F]-radioactivity in blood ([3]; 2 min): 2.75 ± 0.40 % injected dose/g
[^18F]-radioactivity in bone ([3]; 2 min): 1.02 ± 0.31 % injected dose/g
[^18F]-radioactivity in brain (brain uptake) ([3]; 2 min): 1.61±0.23 % injected dose/g
[^18F]-radioactivity in fat ([3]; 2 min): 0.24 ± 0.08 % injected dose/g
[^18F]-radioactivity in heart ([3]; 2 min): 17.21 ± 1.43 % injected dose/g
[^18F]-radioactivity in intestine ([3]; 2 min): 0.77 ± 0.24 % injected dose/g
[^18F]-radioactivity in kidney ([3]; 2 min): 6.15 ± 1.95 % injected dose/g
[^18F]-radioactivity in liver ([3]; 2 min): 1.51 ± 0.38 % injected dose/g
[^18F]-radioactivity in lung ([3]; 2 min): 65.87 ± 15.87 % injected dose/g
[^18F]-radioactivity in muscle ([3]; 2 min): 1.23 ± 0.27 % injected dose/g
[^18F]-radioactivity in pancreas ([3]; 2 min): 1.54 ± 0.34 % injected dose/g
[^18F]-radioactivity in skin ([3]; 2 min): 0.52 ± 0.02 % injected dose/g
[^18F]-radioactivity in spleen ([3]; 2 min): 1.40 ± 0.06 % injected dose/g
[^18F]-radioactivity in stomach ([3]; 2 min): 2.03 ± 1.05 % injected dose/g
[^18F]-radioactivity in testes ([3]; 2 min): 0.50 ± 0.01 % injected dose/g
[^18F]-radioactivity in thyroid ([3]; 2 min): 3.97 ± 1.12 % injected dose/g
[^18F]-radioactivity in adrenals ([3]; 5 min): 28.94 ± 11.26 % injected dose/g
[^18F]-radioactivity in blood ([3]; 5 min): 2.13 ± 0.23 % injected dose/g
[^18F]-radioactivity in bone ([3]; 5 min): 1.41 ± 0.19 % injected dose/g
[^18F]-radioactivity in brain (brain uptake) ([3]; 5 min): 1.13 ± 0.22 % injected dose/g
[^18F]-radioactivity in fat ([3]; 5 min): 0.24 ± 0.03 % injected dose/g
[^18F]-radioactivity in heart ([3]; 5 min): 18.45 ± 1.69 % injected dose/g
[^18F]-radioactivity in intestine ([3]; 5 min): 1.42 ± 0.02 % injected dose/g
[^18F]-radioactivity in kidney ([3]; 5 min): 8.53 ± 1.50 % injected dose/g
[^18F]-radioactivity in liver ([3]; 5 min): 2.19 ± 31^ % injected dose/g
[^18F]-radioactivity in lung ([3]; 5 min): 45.38 ± 5.54 % injected dose/g
[^18F]-radioactivity in muscle ([3]; 5 min): 1.89 ± 0.32 % injected dose/g
[^18F]-radioactivity in pancreas ([3]; 5 min): 2.37 ± 0.56 % injected dose/g
[^18F]-radioactivity in skin ([3]; 5 min): 0.79 ± 0.07 % injected dose/g
[^18F]-radioactivity in spleen ([3]; 5 min): 3.25 ± 0.15 % injected dose/g
[^18F]-radioactivity in stomach ([3]; 5 min): 3.04 ± 0.49 % injected dose/g
[^18F]-radioactivity in testes ([3]; 5 min): 0.71 ± 0.10 % injected dose/g
[^18F]-radioactivity in thyroid ([3]; 5 min): 4.25 ± 0.79 % injected dose/g
[^18F]-radioactivity in adrenals ([3]; 30 min): 12.31 ± 0.43 % injected dose/g
[^18F]-radioactivity in blood ([3]; 30 min): 0.80 ± 0.17 % injected dose/g
[^18F]-radioactivity in bone ([3]; 30 min): 2.05 ± 0.08 % injected dose/g
[^18F]-radioactivity in fat ([3]; 30 min): 0.61 ± 0.26 % injected dose/g
[^18F]-radioactivity in heart ([3]; 30 min): 7.53 ± 2.41 % injected dose/g
[^18F]-radioactivity in intestine ([3]; 30 min): 2.48 ± 0.78 % injected dose/g
[^18F]-radioactivity in kidney ([3]; 30 min): 9.53 ± 0.82 % injected dose/g
[^18F]-radioactivity in liver ([3]; 30 min): 3.52 ± 1.35 % injected dose/g
[^18F]-radioactivity in lung ([3]; 30 min): 9.83 ± 1.66 % injected dose/g
[^18F]-radioactivity in muscle ([3]; 30 min): 2.14 ± 0.31 % injected dose/g
[^18F]-radioactivity in pancreas ([3]; 30 min): 2.46 ± 0.19 % injected dose/g
[^18F]-radioactivity in skin ([3]; 30 min): 1.23 ± 0.21 % injected dose/g
[^18F]-radioactivity in spleen ([3]; 30 min): 5.68 ± 0.59 % injected dose/g
[^18F]-radioactivity in stomach ([3]; 30 min): 3.01 ± 0.70 % injected dose/g
[^18F]-radioactivity in testes ([3]; 30 min): 0.75 ± 0.19 % injected dose/g
[^18F]-radioactivity in thyroid ([3]; 30 min): 3.81 ± 0.42 % injected dose/g
[^18F]-radioactivity in adrenals ([3]; 60 min): 16.66 ± 2.86 % injected dose/g
[^18F]-radioactivity in blood ([3]; 60 min): 0.75 ± 0.01 % injected dose/g
[^18F]-radioactivity in bone ([3]; 60 min): 1.69 ± 0.26 % injected dose/g
[^18F]-radioactivity in brain (brain uptake) ([3]; 60 min): 0.34 ± 0.06 % injected dose/g
[^18F]-radioactivity in fat ([3]; 60 min): 3.27 ± 0.30 % injected dose/g
[^18F]-radioactivity in heart ([3]; 60 min): 5.76 ± 0.87 % injected dose/g
[^18F]-radioactivity in intestine ([3]; 60 min): 3.31 ± 0.16 % injected dose/g
[^18F]-radioactivity in kidney ([3]; 60 min): 9.57 ± 0.76 % injected dose/g
[^18F]-radioactivity in liver ([3]; 60 min): 2.35 ± 0.35 % injected dose/g
[^18F]-radioactivity in lung ([3]; 60 min): 6.46 ± 1.07 % injected dose/g
[^18F]-radioactivity in muscle ([3]; 60 min): 2.13 ± 0.21 % injected dose/g
[^18F]-radioactivity in pancreas ([3]; 60 min): 2.34 ± 0.48 % injected dose/g
[^18F]-radioactivity in skin ([3]; 60 min): 1.39 ± 0.10 % injected dose/g
[^18F]-radioactivity in spleen ([3]; 60 min): 5.79 ± 0.10 % injected dose/g
[^18F]-radioactivity in stomach ([3]; 60 min): 4.21 ± 0.25 % injected dose/g
[^18F]-radioactivity in testes ([3]; 60 min): 0.90 ± 0.10 % injected dose/g
[^18F]-radioactivity in thyroid ([3]; 60 min): 3.21 ± 0.75 % injected dose/g
[^18F]-radioactivity in adrenals ([3]; 240 min): 13.93 ± 6.07 % injected dose/g
[^18F]-radioactivity in blood ([3]; 240 min): 0.60 ± 0.07 % injected dose/g
[^18F]-radioactivity in brain (brain uptake) ([3]; 240 min): 0.32 ± 0.08 % injected dose/g
[^18F]-radioactivity in fat ([3]; 240 min): 0.86 ± 0.10 % injected dose/g
[^18F]-radioactivity in heart ([3]; 240 min): 2.21 ± 0.24 % injected dose/g
[^18F]-radioactivity in intestine ([3]; 240 min): 3.96 ± 0.16 % injected dose/g
[^18F]-radioactivity in kidney ([3]; 240 min): 6.84 ± 0.69 % injected dose/g
[^18F]-radioactivity in liver ([3]; 240 min): 1.76 ± 0.23 % injected dose/g
[^18F]-radioactivity in lung ([3]; 240 min): 3.42 ± 0.73 % injected dose/g
[^18F]-radioactivity in muscle ([3]; 240 min): 1.32 ± 0.11 % injected dose/g
[^18F]-radioactivity in pancreas ([3]; 240 min): 1.41 ± 0.22 % injected dose/g
[^18F]-radioactivity in skin ([3]; 240 min): 1.47 ± 0.06 % injected dose/g
[^18F]-radioactivity in spleen ([3]; 240 min): 3.02 ± 0.25 % injected dose/g
[^18F]-radioactivity in stomach ([3]; 240 min): 3.43 ± 0.54 % injected dose/g
[^18F]-radioactivity in testes ([3]; 240 min): 0.94 ± 0.12 % injected dose/g
[^18F]-radioactivity in thyroid ([3]; 240 min): 2.50 ± 0.15 % injected dose/g
SMILES: COc1ccc(OCC[18F])c(CN(C(C)=O)c2cccnc2Oc2cccc(C)c2C)c1 [[^18F]-5d, N-[2-(2,3-dimethylphenoxy)pyridin-3-yl]-N-[2-(2-[^18F]fluoroethoxy)-5-methoxybenzyl]acetamide]
Specificity of binding: autoradiographic signal on co-injection of the corresponding [^19F] compound ([2]; kainic acid treated rats, co-injected with [^19F]-2e and [^19F]-5e, respectively): significantly reduced autoradiographic signal
[^18F]-radioactivity in brain (brain uptake) ([3]; 30 min): 0.44±0.15 % injected dose/g and 0.44 ± 0.51 % injected dose/g
[^18F]-radioactivity in bone ([3]; 240 min): 2.6 % injected dose/g and 2.59 ± 0.56 % injected dose/g

SMILES: CC(=O)N(Cc1ccccc1OCC[18F])c1cnccc1Oc1ccccc1 [[^18F]-FEPPA]
Brain uptake, standard uptake value (SUV), washout ([4]; after 60 min): 0.35
Brain uptake, standard uptake value (SUV) ([4]; at 5 min): 0.6

Ki [5]: > 20 µM
Ki (PBR): 3.6 ± 1.3 nM
SMILES: COc1ccc(Oc2ncccc2N(Cc2cc(OC)ccc2OCCF)C(C)=O)cc1 [[^19F]-2e, N-[2-(2-fluoroethoxy)-5-methoxybenzyl]-N-[2-(4-methoxyphenoxy)pyridin-3-yl]acetamide]

— US20110200535A1, “DAA-PYRIDINE AS PERIPHERAL BENZODIAZEPINE RECEPTOR LIGAND FOR DIAGNOSTIC IMAGING AND PHARMACEUTICAL TREATMENT” (BAYER SCHERING PHARMA AKTIENGESELLSCHAFT, priority 2008, published 2011)
